Assay results published in patent US20020094993A1, “Compositions for repelling crawling insects” (priority 2000, published 2002).
Like-named read-outs stand apart in the source and are kept apart here.

System: garden ants (Lasius niger)
Assay: Repellent effect of active compounds on treated surfaces against ants
Assay type: in vivo
Set-up: pest or weed control: dose or concentration left out as unconfirmed
Method: Determination of a Repellent Effect of Active Compounds on Treated Surfaces against Ants
The tests are carried out in crystallizing dishes (Ø 30 cm, height 10 cm) using garden ants (Lasius niger). The walls of the dishes are treated with talc to prevent the test animals from escaping. The bottom of the dish is filled with a well-moistened layer of peat of a height of about 3-4 cm. At least 5 days before the beginning of the test, the dishes are populated with 300 ants which by the time the test starts will have built passages and hiding places. The dishes prepared in this manner can be used for several weeks as long as the substances examined are insecticide-free. The ants are fed with forest honey and crystalline sugar, and the feed is removed from the dishes during the tests.
Immediately before the start of the test, 2 glass plates (5×10 cm) are placed into the dish. One plate had been treated with active compound, the other remains untreated.
The activity of the ants can be monitored, for example, visually.
What is determined is the number of ants which, within a period of 15 minutes, cross the surface to be evaluated. The activity has to be so high that at least 100 contacts are achieved. If the activity is not high enough, the time for the test has to be extended accordingly. By evaluating the number of contacts on the treated and the untreated tile, a possible repellent action can be determined.
The results of the experiments with different compositions of repellent and additive are shown below. In the compositions, repellent and additive were mixed in a ratio of 100:100% by weight.

[1] = Lasius niger, 24 h, additive alone, after 1 day, read-out: % reduction of contacts after days
[2] = Lasius niger, 24 h, IR 3535/DEET table, after 1 day, read-out: % reduction of contacts after days
[3] = Lasius niger, 48 h, IR 3535/DEET table, after 2 days, read-out: % reduction of contacts after days
[4] = Lasius niger, 72 h, IR 3535/DEET table, after 3 days, read-out: % reduction of contacts after days
[5] = Lasius niger, 96 h, IR 3535/DEET table, after 4 days, read-out: % reduction of contacts after days
[6] = Lasius niger, 168 h, IR 3535/DEET table, after 7 days, read-out: % reduction of contacts after days
[7] = Lasius niger, 192 h, IR 3535/DEET table, after 8 days, read-out: % reduction of contacts after days
[8] = Lasius niger, 240 h, IR 3535/DEET table, after 10 days, read-out: % reduction of contacts after days

**Q.** With `COc1ccc(C=O)c(OC)c1` [2,4-Dimethoxybenzaldehyde] as the compound, how does the pest or weed control [1] read?
**A.** The pest or weed control was 0%.

**Q.** For `CCCCN(CCC(=O)OCC)C(C)=O` [Ex. 1], which pest or weed control [2] is on record?
**A.** The pest or weed control was 98%.

**Q.** What about the pest or weed control [3] of the same compound?
**A.** Its pest or weed control is 91%.

**Q.** And the pest or weed control [4]?
**A.** Its pest or weed control is 29%.

**Q.** And the pest or weed control [5]?
**A.** The pest or weed control was 0%.

**Q.** And the pest or weed control [6]?
**A.** The pest or weed control was 0%.

**Q.** And the pest or weed control [7]?
**A.** The pest or weed control was 0%.

**Q.** What about the pest or weed control [8] of the same compound?
**A.** Its pest or weed control is 0%.

**Q.** Which pest or weed control [1] does the source give for `OCC(O)CO` [Glycerol] here?
**A.** The pest or weed control was 0%.

**Q.** How did the pest or weed control at 500 mg/m2 (Lasius niger, 24 h, read-out: % reduction of contacts after days) turn out when `O=C(O)c1ccccc1O` [Salicylic acid] was run?
**A.** The pest or weed control at 500 mg/m2 was 3%.

**Q.** `COc1cc(C=O)ccc1O` [Vanillin] was tested. Which pest or weed control [1] did it give?
**A.** Its pest or weed control is 63%.

**Q.** And the pest or weed control (Lasius niger, 48 h, additive alone, after 2 days, read-out: % reduction of contacts after days)?
**A.** The pest or weed control was 46%.

**Q.** What about the pest or weed control (Lasius niger, 72 h, additive alone, after 3 days, read-out: % reduction of contacts after days) of the same compound?
**A.** The pest or weed control was 65%.

**Q.** And the pest or weed control (Lasius niger, 96 h, additive alone, after 4 days, read-out: % reduction of contacts after days)?
**A.** The pest or weed control was 83%.

**Q.** What about the pest or weed control (Lasius niger, 168 h, additive alone, after 7 days, read-out: % reduction of contacts after days) of the same compound?
**A.** The pest or weed control was 51%.

**Q.** What about the pest or weed control (Lasius niger, 192 h, additive alone, after 8 days, read-out: % reduction of contacts after days) of the same compound?
**A.** Its pest or weed control is 35%.

**Q.** What about the pest or weed control (Lasius niger, 216 h, additive alone, after 9 days, read-out: % reduction of contacts after days) of the same compound?
**A.** The pest or weed control was 0%.

**Q.** And the pest or weed control (Lasius niger, 240 h, additive alone, after 10 days, read-out: % reduction of contacts after days)?
**A.** Its pest or weed control is 0%.

**Q.** And the “repellent effect of the additive on the ants” value (additive alone)?
**A.** The value was “slightly repellent effect”.

**Q.** `CCN(CC)C(=O)c1cccc(C)c1` [compound 5, N,N-diethyl-m-toluamide] was tested. Which pest or weed control [2] did it give?
**A.** Its pest or weed control is 100%.

**Q.** And the pest or weed control [3]?
**A.** The pest or weed control was 76%.

**Q.** What about the pest or weed control [4] of the same compound?
**A.** Its pest or weed control is 0%.

**Q.** What about the pest or weed control [5] of the same compound?
**A.** Its pest or weed control is 0%.

**Q.** And the pest or weed control [6]?
**A.** Its pest or weed control is 27%.

**Q.** And the pest or weed control [7]?
**A.** Its pest or weed control is 14%.

**Q.** And the pest or weed control [8]?
**A.** Its pest or weed control is 0%.

**Q.** `O=Cc1ccc(O)cc1` [p-Hydroxybenzaldehyde] was tested. Which pest or weed control [1] did it give?
**A.** The pest or weed control was 23%.

**Q.** For `O=C/C=C/c1ccccc1` [trans-Cinnamaldehyde], which pest or weed control [1] is on record?
**A.** The pest or weed control was 0%.
